According to US9730937B2, “RAF kinase modulator compounds and methods of use thereof” (AMBIT BIOSCIENCES CORPORATION, priority 2008, dated 2017):
Where a name gives a salt, the structure may show the parent alone.

System: panel of 290 distinct kinases (321 in the larger panel), excluding mutant variants
Details: asterisk: panel of 321 distinct kinases

Row | Compound | S35
1 | COCCOc1cc2ncnc(Oc3cccc(NC(=O)Nc4cc(C(C)C)on4)c3)c2cc1OC [Ex 206, 1-(5-isopropylisoxazol-3-yl)-3-(3-(6-methoxy-7-(2-methoxyethoxy)quinazolin-4-yloxy)phenyl)urea] | C* (0.20 < C ≦ 0.40)
2 | COCCOc1cc2ncnc(Oc3cccc(NC(=O)Nc4cc(C5CCCC5)no4)c3)c2cc1OC [Ex 207, 1-(3-cyclopentylisoxazol-5-yl)-3-(3-(6-methoxy-7-(2-methoxyethoxy)quinazolin-4-yloxy)phenyl)urea] | C* (0.20 < C ≦ 0.40)
3 | COCCOc1cc2ncnc(Oc3cccc(NC(=O)Nc4cc(C(F)(F)F)n(C)n4)c3)c2cc1OC [Ex 208, 1-{3-[6-methoxy-7-(2-methoxyethoxy)quinazolin-4-yloxy]phenyl}-3-[1-methyl-5-(trifluoromethyl)-1H-pyrazol-3-yl]urea] | C* (0.20 < C ≦ 0.40)
4 | COCCOc1cc2ncnc(Oc3cccc(NC(=O)Nc4cc(C(C)(C)C)nn4C)c3)c2cc1OC [Ex 209, 1-(3-tert-butyl-1-methyl-1H-pyrazol-5-yl)-3-(3-(6-methoxy-7-(2-methoxyethoxy)quinazolin-4-yloxy)phenyl)urea] | C* (0.20 < C ≦ 0.40)
5 | COCCOc1cc2ncnc(Oc3cccc(NC(=O)Nc4cc(C(C)(C)C)nn4-c4ccccc4)c3)c2cc1OC [Ex 210, 1-(3-tert-butyl-1-phenyl-1H-pyrazol-5-yl)-3-(3-(6-methoxy-7-(2-methoxyethoxy)quinazolin-4-yloxy)phenyl)urea] | D* (D > 0.40)
6 | COCCOc1cc2ncnc(Oc3cccc(NC(=O)Nc4cc(C(C)(F)F)no4)c3)c2cc1OC [Ex 211, 1-(3-(1,1-difluoroethyl)isoxazol-5-yl)-3-(3-(6-methoxy-7-(2-methoxyethoxy)quinazolin-4-yloxy)phenyl)urea] | C* (0.20 < C ≦ 0.40)
7 | COCCOc1cc2ncnc(Oc3cccc(NC(=O)Nc4cc(C(C)(CF)CF)on4)c3)c2cc1OC [Ex 213, 1-[5-(1,3-difluoro-2-methylpropan-2-yl)isoxazol-3-yl]-3-{3-[6-methoxy-7-(2-methoxyethoxy)quinazolin-4-yloxy]phenyl}urea] | D* (D > 0.40)
8 | COCCOc1cc2ncnc(Oc3cccc(NC(=O)Nc4cc(C5CC5)no4)c3)c2cc1OC [Ex 214, 1-(3-cyclopropylisoxazol-5-yl)-3-(3-(6-methoxy-7-(2-methoxyethoxy)quinazolin-4-yloxy)phenyl)urea] | C* (0.20 < C ≦ 0.40)
9 | COCCOc1cc2ncnc(Oc3cccc(NC(=O)Nc4cc(C(C)C)no4)c3)c2cc1OC [Ex 215, 1-(3-isopropylisoxazol-5-yl)-3-(3-(6-methoxy-7-(2-methoxyethoxy)quinazolin-4-yloxy)phenyl)urea] | C* (0.20 < C ≦ 0.40)
10 | COCCOc1cc2ncnc(Oc3cccc(NC(=O)Nc4cc(C5CCOCC5)no4)c3)c2cc1OC [Ex 216, 1-(3-(6-methoxy-7-(2-methoxyethoxy)quinazolin-4-yloxy)phenyl)-3-(3-(tetrahydro-2H-pyran-4-yl)isoxazol-5-yl)urea] | B* (0.10 < B ≦ 0.20)
11 | COCCOc1cc2ncnc(Oc3cccc(NC(=O)Nc4cc(C(C)(C)COC)on4)c3)c2cc1OC [Ex 217, 1-(5-(1-methoxy-2-methylpropan-2-yl)isoxazol-3-yl)-3-(3-(6-methoxy-7-(2-methoxyethoxy)quinazolin-4-yloxy)phenyl)urea] | C* (0.20 < C ≦ 0.40)
12 | COCCOc1cc2ncnc(Oc3cccc(NC(=O)Nc4cc(C(C)(C)F)no4)c3)c2cc1OC [Ex 218, 1-(3-(2-fluoropropan-2-yl)isoxazol-5-yl)-3-(3-(6-methoxy-7-(2-methoxyethoxy)quinazolin-4-yloxy)phenyl)urea] | C* (0.20 < C ≦ 0.40)
13 | COCCOc1cc2ncnc(Oc3cccc(NC(=O)Nc4cc(C5CCCC5)on4)c3)c2cc1OC [Ex 219, 1-(5-cyclopentylisoxazol-3-yl)-3-(3-(6-methoxy-7-(2-methoxyethoxy)quinazolin-4-yloxy)phenyl)urea] | C* (0.20 < C ≦ 0.40)
14 | COCCOc1cc2ncnc(Oc3cccc(NC(=O)Nc4cc(C(F)(F)F)nn4C)c3)c2cc1OC [Ex 220, 1-{3-[6-methoxy-7-(2-methoxyethoxy)quinazolin-4-yloxy]phenyl}-3-[1-methyl-3-(trifluoromethyl)-1H-pyrazol-5-yl]urea] | C* (0.20 < C ≦ 0.40)
15 | COCCOc1cc2ncnc(Oc3cccc(NC(=O)Nc4cc(C(F)(F)F)nn4-c4ccccc4)c3)c2cc1OC [Ex 221, 1-{3-[6-methoxy-7-(2-methoxyethoxy)quinazolin-4-yloxy]phenyl}-3-[1-phenyl-3-(trifluoromethyl)-1H-pyrazol-5-yl]urea] | C* (0.20 < C ≦ 0.40)
16 | COCCOc1cc2ncnc(Oc3cccc(NC(=O)Nc4ccc(C(F)(F)F)c(F)c4)c3)c2cc1OC [Ex 222, 1-(3-fluoro-4-(trifluoromethyl)phenyl)-3-(3-(6-methoxy-7-(2-methoxyethoxy)quinazolin-4-yloxy)phenyl)urea] | C* (0.20 < C ≦ 0.40)
17 | COCCOc1cc2ncnc(Oc3cccc(NC(=O)Nc4ccc(C(F)(F)F)c(OC)c4)c3)c2cc1OC [Ex 223, 1-(3-methoxy-4-(trifluoromethyl)phenyl)-3-(3-(6-methoxy-7-(2-methoxyethoxy)quinazolin-4-yloxy)phenyl)urea] | C* (0.20 < C ≦ 0.40)
18 | CCOC(=O)Cn1nc(C(C)(C)C)cc1NC(=O)Nc1cccc(Oc2ncnc3cc(OCCOC)c(OC)cc23)c1 [Ex 224, ethyl 2-[3-tert-butyl-5-(3-{3-[6-methoxy-7-(2-methoxyethoxy)quinazolin-4-yloxy]phenyl}ureido)-1H-pyrazol-1-yl]acetate hydrochloride] | A* (A ≦ 0.10)
19 | COCCOc1cc2ncnc(Oc3cccc(NC(=O)Nc4cc(C(F)(F)F)n(-c5ccccc5)n4)c3)c2cc1OC [Ex 225, 1-{3-[6-methoxy-7-(2-methoxyethoxy)quinazolin-4-yloxy]phenyl}-3-[1-phenyl-5-(trifluoromethyl)-1H-pyrazol-3-yl]urea] | C* (0.20 < C ≦ 0.40)
20 | COCCOc1cc2ncnc(Oc3cccc(NC(=O)Nc4cc(C(F)(F)F)nn4-c4ccc(F)cc4)c3)c2cc1OC [Ex 226, 1-[1-(4-fluorophenyl)-3-(trifluoromethyl)-1H-pyrazol-5-yl]-3-{3-[6-methoxy-7-(2-methoxyethoxy)quinazolin-4-yloxy]phenyl}urea] | C* (0.20 < C ≦ 0.40)
21 | COCCOc1cc2ncnc(Oc3cccc(NC(=O)Nc4cc(C(F)(F)F)nn4-c4ccc(C)cc4)c3)c2cc1OC [Ex 227, 1-{3-[6-methoxy-7-(2-methoxyethoxy)quinazolin-4-yloxy]phenyl}-3-[1-p-tolyl-3-(trifluoromethyl)-1H-pyrazol-5-yl]urea] | C* (0.20 < C ≦ 0.40)

Same assay, conditions: kinase selectivity score, 290 distinct kinases; class symbols

Row | Compound | S35
22 | CCOc1cc2ncnc(Sc3cccc(NC(=O)Nc4cc(C(C)(C)C)on4)c3)c2cc1OC [Ex 50, 1-(5-tert-butylisoxazol-3-yl)-3-[3-(7-ethoxy-6-methoxyquinazolin-4-ylthio)phenyl]urea] | B (0.10 < B ≦ 0.20)
23 | COc1cc(NC(=O)Nc2cccc(Sc3ncnc4cc(OC)c(OC)cc34)c2)cc(C(F)(F)F)c1 [Ex 115, 1-(3-(6,7-dimethoxyquinazolin-4-ylthio)phenyl)-3-(3-methoxy-5-(trifluoromethyl)phenyl)urea] | C (0.20 < C ≦ 0.40)
24 | COc1cc(NC(=O)Nc2cccc(Oc3ncnc4cc(OC)c(OC)cc34)c2)cc(C(F)(F)F)c1 [Ex 116, 1-(3-(6,7-dimethoxyquinazolin-4-yloxy)phenyl)-3-(3-methoxy-5-(trifluoromethyl)phenyl)urea] | B (0.10 < B ≦ 0.20)
25 | COCCOc1cc(NC(=O)Nc2cccc(Oc3ncnc4cc(OCCOC)c(OC)cc34)c2)cc(C(F)(F)F)c1 [Ex 117, 1-(3-(6-methoxy-7-(2-methoxyethoxy)quinazolin-4-yloxy)phenyl)-3-(3-(2-methoxyethoxy)-5-(trifluoromethyl)phenyl)urea] | C (0.20 < C ≦ 0.40)
26 | COc1cc2ncnc(Oc3cccc(NC(=O)Nc4cc(C(C)(C)F)no4)c3)c2cc1OC [Ex 126, 1-(3-(6,7-dimethoxyquinazolin-4-yloxy)phenyl)-3-(3-(2-fluoropropan-2-yl)isoxazol-5-yl)urea] | C (0.20 < C ≦ 0.40)
27 | COCCOc1cc2ncnc(Oc3cccc(NC(=O)Nc4cc(-c5ccccc5)on4)c3)c2cc1OC [Ex 203, 1-(3-(6-methoxy-7-(2-methoxyethoxy)quinazolin-4-yloxy)phenyl)-3-(5-phenylisoxazol-3-yl)urea] | B (0.10 < B ≦ 0.20)

Same assay, conditions: kinase selectivity score, value marked * (larger kinase panel); class symbols

Row | Compound | S35
28 | COc1cc2ncnc(Oc3cccc(NC(=O)Nc4cc(C(C)(C)F)no4)c3)c2cc1OCCCS(C)(=O)=O [Ex 42, 1-(3-(2-fluoropropan-2-yl)isoxazol-5-yl)-3-(3-(7-methoxy-6-(3-(methylsulfonyl)propoxy)quinazolin-4-yloxy)phenyl)urea] | C* (0.20 < C ≦ 0.40)
29 | COc1cc2ncnc(Oc3cccc(NC(=O)Nc4cc(C(C)(C)C#N)no4)c3)c2cc1OC [Ex 125, 1-(3-(2-cyanopropan-2-yl)isoxazol-5-yl)-3-(3-(6,7-dimethoxyquinazolin-4-yloxy)phenyl)urea] | C* (0.20 < C ≦ 0.40)
30 | COc1cc2ncnc(Oc3cccc(NC(=O)Nc4cc(C5(C(F)(F)F)CC5)nn4-c4ccccc4)c3)c2cc1OC [Ex 137, 1-(3-(6,7-dimethoxyquinazolin-4-yloxy)phenyl)-3-(1-phenyl-3-(1-(trifluoromethyl)cyclopropyl)-1H-pyrazol-5-yl)urea] | D* (D > 0.40)
31 | COc1cc2ncnc(Oc3cccc(NC(=O)Nc4ccc(C(F)(F)F)c(F)c4)c3)c2cc1OC [Ex 150, 1-(3-(6,7-dimethoxyquinazolin-4-yloxy)phenyl)-3-(3-fluoro-4-(trifluoromethyl)phenyl)urea] | C* (0.20 < C ≦ 0.40)
32 | COc1cc2ncnc(Oc3cccc(NC(=O)Nc4cc(C(C)(CF)CF)no4)c3)c2cc1OC [Ex 159, 1-[3-(1,3-difluoro-2-methylpropan-2-yl)isoxazol-5-yl]-3-[3-(6,7-dimethoxyquinazolin-4-yloxy]phenyl)urea] | D* (D > 0.40)
33 | COc1cc2ncnc(Sc3cccc(NC(=O)Nc4ccc(C(F)(F)F)cc4)c3)c2cc1OC [Ex 184, 1-(3-(6,7-dimethoxyquinazolin-4-ylthio)phenyl)-3-(4-(trifluoromethyl)phenyl)urea] | C* (0.20 < C ≦ 0.40)
